Values of other authors in article PMC12006171, “Marsupial cathelicidins: characterization, antimicrobial activity and evolution in this unique mammalian lineage” (Frontiers in Immunology, 2025).
Like-named read-outs stand apart in the source and are kept apart here.

Experiments:
[1] = test system: three fungi (Candida krusei, Candida parapsilosis, Candida albicans); parameters: method as in 4 sources, ref Peel et al 2016 ||| ref Peel et al 2021 ||| ref Wang et al 2011 ||| ref Peel et al 2017; settings: cited from earlier work
[2] = test system: six bacteria (S. aureus, E. coli, P. aeruginosa; ATCC and clinical isolate); parameters: method as in 4 sources, ref Peel et al 2016 ||| ref Peel et al 2021 ||| ref Wang et al 2011 ||| ref Peel et al 2017; settings: cited from earlier work
[3] = mature peptide, Y/N summary from earlier study, ref Peel et al 2017
[4] = mature peptide (MP), Y/N summary, ref Peel et al 2017
[5] = mature peptide, Y/N summary from earlier study, ref Wang et al 2011
[6] = mature peptide, Y/N summary from earlier study, ref Peel et al 2021

KRGLWESLKRKVTKLGDDIRNTLRNFKIKFPVPRQG [MaeuCath7]
Antifungal (MIC <64ug/mL) [1, 3]: N (Peel et al 2017) (Antifungal (MIC <64ug/mL)) | Antibacterial (MIC <64ug/mL) [2, 3]: Y (Peel et al 2017) (Antibacterial (MIC <64ug/mL))

SKTKRRSLLKRLGDGIRGFWNGFRGRK [ModoCath4]
Antifungal (MIC <64ug/mL) [1, 4]: Y (Peel et al 2017) (Antifungal (MIC <64ug/mL)) | Antibacterial (MIC <64ug/mL) [2, 4]: Y (Peel et al 2017) (Antibacterial (MIC <64ug/mL))

KRGLWESLKRKATKLGDDIRNTLRNFKIKFPVPRQG [MaeuCath2*]
Antifungal (MIC <64ug/mL) [1, 5]: Y (Wang et al 2011) (Antifungal (MIC <64ug/mL)) | Antibacterial (MIC <64ug/mL) [2, 5]: Y (Wang et al 2011) (Antibacterial (MIC <64ug/mL))

LYRRRKYPTSYYLLLGGKGNNRGYKPHIIYV [ModoCath11]
Antifungal (MIC <64ug/mL) [1, 4]: N (Peel et al 2017) (Antifungal (MIC <64ug/mL)) | Antibacterial (MIC <64ug/mL) [2, 4]: N (Peel et al 2017) (Antibacterial (MIC <64ug/mL))

LFPRRRKGSNKPGKYSVLFAAKPSVGKTPHILTI [PhciCath1]
Antifungal (MIC <64ug/mL) [1, 6]: N (Peel et al 2021) (Antifungal (MIC <64ug/mL)) | Antibacterial (MIC <64ug/mL) [2, 6]: N (Peel et al 2021) (Antibacterial (MIC <64ug/mL))

PIRTKRRWKLIKKGGKIVKDLLTKNNIIILPGGNE [TaacCath1]
Antifungal (MIC <64ug/mL) [1, 4]: N (Peel et al 2017) (Antifungal (MIC <64ug/mL)) | Antibacterial (MIC <64ug/mL) [2, 4]: Y (Peel et al 2017) (Antibacterial (MIC <64ug/mL))

PPEPLRFKRIRCLNGRKCNYHNLLLTIVPHWRIPKGK [PhciCath3]
Antifungal (MIC <64ug/mL) [1, 6]: N (Peel et al 2021) (Antifungal (MIC <64ug/mL)) | Antibacterial (MIC <64ug/mL) [2, 6]: N (Peel et al 2021) (Antibacterial (MIC <64ug/mL))
